These results are taken from ChEMBL document CHEMBL1201862, “PubChem BioAssay data set” (2004).

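48-hour exposure; five concentrations; linearly interpolated endpoints. Here, GI50 denotes the concentration required for 50% inhibition of growth.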 The source made the active and inactive calls. No stated cut-off is given here; in the data, active = GI50 up to about 1.1 µM and inactive = higher. Bounds are passed on as bounds.

Among the test systems are HOP-62; HT-29; IGROV-1; MDA-N; SNB-75; TK-10; RPMI-8226; UACC-62; 786-0; DU-145; CAKI-1; NCI-H522; A498; HL-60; RXF 393; SK-MEL-5; SR; MCF7; HCT-116; NCI-H460.
What all share (test): DTP human tumour cell line panel, 48 h

What is called GI50 is the concentration that inhibits growth by half. For the compound `O=C1C(Br)=C(C2=CC(=P(c3ccccc3)(c3ccccc3)c3ccccc3)C=C2)C(=O)C(Br)=C1C1=CC(=P(c2ccccc2)(c2ccccc2)c2ccccc2)C=C1`, the GI50 with HOP-62 was > 100 µM (inactive); with HT-29 it was > 100 µM (inactive); with IGROV-1, 40.3 µM (inactive); in the assay on MDA-N it was > 100 µM (inactive); in the assay on SNB-75 it was > 100 µM (inactive); in the assay with TK-10 it was 30.3 µM (inactive). For the same compound, the GI50 in the assay on RPMI-8226 is > 100 µM (inactive); with UACC-62, > 100 µM (inactive); with 786-0, 37.9 µM (inactive); in the assay on DU-145 it was > 100 µM (inactive); in the assay on CAKI-1, > 100 µM (inactive); in the assay on NCI-H522 it was 19.9 µM (inactive). In addition, the GI50 with A498, in the assay with HL-60, with RXF 393, with SK-MEL-5, in the assay on SR and with MCF7 was > 100 µM (inactive) in each case. Also, the GI50 in the assay with HCT-116 is 99.1 µM (inactive).

Turning to `COC1N(C2CC(O)C(CO)O2)C(=O)NC(=O)C1(F)Br` (centres undefined), the GI50 was 1.45 µM (inactive) in the assay with HOP-62; 20 µM (inactive) in the assay on HT-29; 14.1 µM (inactive) in the assay with IGROV-1; 18.7 µM (inactive) in the assay on MDA-N; 36.1 µM (inactive) in the assay on SNB-75; > 100 µM (inactive) with TK-10. Besides, the GI50 is 19.3 µM (inactive) with RPMI-8226; 4.27 µM (inactive) in the assay on UACC-62; 5.01 µM (inactive) with 786-0; 4.72 µM (inactive) in the assay with DU-145; > 19.9 µM (inactive) in the assay on CAKI-1; 49.1 µM (inactive) with NCI-H522. For the same compound, the GI50 with A498 was 9.29 µM (inactive); in the assay on HL-60, > 50 µM (inactive); in the assay on RXF 393 it was 46.7 µM (inactive); in the assay with SK-MEL-5, 7.66 µM (inactive); with SR, 6.18 µM (inactive); with NCI-H460 it was 0.346 µM (active). The values for the GI50 with MCF7 and in the assay on HCT-116 were 0.52 µM (active) and 7.8 µM (inactive), respectively.

Consider `O=P(Nc1ccccc1)(Oc1ccccc1)N1CCN(c2ccccc2)CC1` (centres undefined), for which the GI50 was 18 µM (inactive) in the assay with HOP-62; 15.8 µM (inactive) in the assay on HT-29; 20.8 µM (inactive) in the assay with IGROV-1; 16.9 µM (inactive) with MDA-N; 15.2 µM (inactive) in the assay with SNB-75; 21.8 µM (inactive) in the assay on TK-10. Moreover, the GI50 in the assay with RPMI-8226 was 40.7 µM (inactive); in the assay with UACC-62, 12.7 µM (inactive); in the assay on 786-0, 22.1 µM (inactive); in the assay with DU-145 it was 19.6 µM (inactive); with CAKI-1, 24.8 µM (inactive); with NCI-H522, 4.85 µM (inactive). Besides, the GI50 is 20.2 µM (inactive) in the assay on A498; 25 µM (inactive) with HL-60; 18.2 µM (inactive) in the assay with RXF 393; 19.4 µM (inactive) in the assay on SK-MEL-5; 34.4 µM (inactive) in the assay on SR; 17.4 µM (inactive) with NCI-H460. For the same compound, the results for the GI50 with MCF7 and with HCT-116 were 17.2 µM (inactive) and 16.8 µM (inactive), respectively.

For the compound `O=C(Cc1ccc(Cl)c(Cl)c1)N(CCc1ccc(Cl)c(Cl)c1)CCN1CCCC1`, the GI50 in the assay on HOP-62 was 1.79 µM (inactive); with HT-29 it was 1.86 µM (inactive); in the assay on IGROV-1 it was 1.74 µM (inactive); in the assay on MDA-N it was 1.67 µM (inactive); in the assay with SNB-75 it was 2.05 µM (inactive); in the assay on TK-10, 1.81 µM (inactive). Also, the GI50 in the assay on RPMI-8226 is 1.71 µM (inactive); in the assay on UACC-62 it was 1.78 µM (inactive); in the assay with 786-0, 1.61 µM (inactive); with DU-145 it was 2.14 µM (inactive); in the assay on CAKI-1, 1.67 µM (inactive); in the assay on NCI-H522, 1.77 µM (inactive). The GI50 in the assay with A498 is 1.85 µM (inactive); with HL-60, 1.42 µM (inactive); in the assay on RXF 393, 1.71 µM (inactive); with SK-MEL-5 it was 1.78 µM (inactive); in the assay with SR, 1.39 µM (inactive); in the assay on NCI-H460, 1.85 µM (inactive). Moreover, the results for the GI50 in the assay on MCF7 and in the assay with HCT-116 were 1.73 µM (inactive) and 1.66 µM (inactive), respectively.

For `Cc1cc(=O)nc(Sc2ccc([N+](=O)[O-])cc2[N+](=O)[O-])[nH]1`, the GI50 is 24.5 µM (inactive) with HOP-62; 3.55 µM (inactive) with HT-29; 80.2 µM (inactive) with IGROV-1; 16.7 µM (inactive) with MDA-N; 1.53 µM (inactive) with SNB-75; 15.8 µM (inactive) in the assay on TK-10. The GI50 is 3.9 µM (inactive) in the assay on RPMI-8226; 17.3 µM (inactive) with UACC-62; 16.7 µM (inactive) in the assay with 786-0; 17.2 µM (inactive) in the assay on DU-145; 15.1 µM (inactive) with CAKI-1; 7.23 µM (inactive) with NCI-H522. Also, the GI50 in the assay on A498 was > 100 µM (inactive); with HL-60, 3.33 µM (inactive); in the assay with RXF 393, 12.9 µM (inactive); in the assay with SK-MEL-5, 1.75 µM (inactive); in the assay with SR it was 6.27 µM (inactive); in the assay with NCI-H460 it was 23 µM (inactive). Moreover, the GI50 in the assay with MCF7 was 14.4 µM (inactive); in the assay on HCT-116, 10.2 µM (inactive).

As to `COc1cc2c(NCCCCCO)ncnc2c(OC)c1OC`, the GI50 in the assay with HOP-62, in the assay on HT-29, in the assay on IGROV-1, in the assay on MDA-N, with SNB-75 and in the assay on TK-10 was > 100 µM (inactive) each time. Also, the GI50 in the assay with RPMI-8226 is > 93.1 µM (inactive); with UACC-62, > 100 µM (inactive); with 786-0 it was > 100 µM (inactive); with DU-145, > 100 µM (inactive); in the assay on CAKI-1 it was > 100 µM (inactive); in the assay on NCI-H522, > 100 µM (inactive). Further, the GI50 with A498 is > 100 µM (inactive); with HL-60 it was > 100 µM (inactive); in the assay on RXF 393 it was > 100 µM (inactive); in the assay on SK-MEL-5, > 84.7 µM (inactive); in the assay on SR, > 87.9 µM (inactive); in the assay on NCI-H460, > 100 µM (inactive). Besides, the GI50 in the assay with MCF7 and in the assay on HCT-116 was > 100 µM (inactive) in each case.

Turning to `C=CCc1cc(-c2cc(CC=C)c(O)c(CN(CC)CC)c2)cc(CN(CC)CC)c1O`, the GI50 with HOP-62 is 47.4 µM (inactive); in the assay on HT-29, 15.7 µM (inactive); with IGROV-1, > 67.6 µM (inactive); in the assay with MDA-N, 31.4 µM (inactive); in the assay on SNB-75, > 100 µM (inactive); in the assay with TK-10, 62.7 µM (inactive). Further, the GI50 in the assay with RPMI-8226 is 27.5 µM (inactive); in the assay on UACC-62, 22.2 µM (inactive); in the assay on 786-0, 30.5 µM (inactive); with DU-145, > 100 µM (inactive); with CAKI-1, 50.2 µM (inactive); in the assay with NCI-H522, 20.6 µM (inactive). Further, the GI50 in the assay with A498 was > 100 µM (inactive); in the assay on HL-60, 35.4 µM (inactive); in the assay with RXF 393, 21.4 µM (inactive); with SK-MEL-5, 11.1 µM (inactive); with SR it was 13.5 µM (inactive); in the assay on NCI-H460, 21.3 µM (inactive). The GI50 in the assay on MCF7 is 58.5 µM (inactive); in the assay on HCT-116, 22 µM (inactive).
